Experimental data: patent publication US20190212343A1, “METHODS FOR THE TREATMENT OF DISORDERS RELATED TO PHOSPHORYLATION OF HISTONES” (H. LEE MOFFITT CANCER CENTER AND RESEARCH INSTITUTE, INC., priority 2014, published 2019)

Key:
Format in all cases: cell-based, human
LNCaP cells = test: Cell proliferation assay, viable cells counted by trypan blue exclusion; settings: charcoal stripped media, 36 hrs, read-out: IC50, inhibition of cell growth
Experimental: (§1) FIGS. 5A and 5B show cell proliferation assay. (FIG. 5A) LNCaP and (FIG. 5B) VCaP cells were grown in charcoal stripped media and treated with 1, 2.5, 5 and 10 uM of inhibitors (36 hrs) and number of viable cells were counted by trypan blue exclusion assay
(§2) Applicant also assessed ability of the new Ack1 inhibitors to suppress proliferation of prostate cancer cell lines. […] Overall, it appears that ACK I is needed for androgen-independent growth of prostate cancer cells.

VCaP cells = test: as above; settings: androgen-independent VCaP cells, charcoal stripped media, 36 hrs; read-out: IC50, inhibition of cell growth
Experimental: as §1, §2

AR protein levels = AR protein levels in androgen deprived prostate cancer cells (immunoblotting); settings: androgen deprived LNCaP and VCaP cells, 2.5, 5 and 10 uM
Experimental: (FIG. 6A) Androgen starved LAPC4 cells were treated with DHT (10 nM, 16 Hrs), AIM-100, DZI-067, Enzalutamide or PLX4032 (7 uM, 36 Hr) and AR, pACK1 and Actin levels were determined by immunoblotting (IB). The relative level of AR is shown below. (FIG. 6B) Androgen deprived LNCaP and VCaP cell were untreated or treated with 2.5, 5 and 10 uM of AIM-100 and lysates were immunoblotted. The quantitation of AR expression is shown. (FIG. 6C) Androgen deprived LNCaP and VCaP cell were untreated or treated with 2.5, 5 and 10 uM of DZI-067 and lysates were immunoblotted. The quantitation of AR expression is shown. (FIG. 6D) LNCaP cells were transfected with control and Ack1 siRNAs followed by immunoblotting. (FIG. 6E) LNCaP cells treated with AIM-100 (7 uM, 16 hr) or MG 132 (10 uM, 6 hr) were immunoblotted with AR antibodies. […]
AR has been known to interact with an ubiquitin E3 ligase, RNF6, causing AR ubiquitination, which in turn promoted AR transcriptional activity (Xu, K. et al. (2009) Cancer Cell 15(4):270-282). To determine whether post-translational modification has role to play in suppression of AR levels upon Ack1 kinase inhibition, LNCaP cells were treated with proteosomal inhibitor, MG-132 and AR levels were measured in presence or absence of AIM-100.

[1] = test system: pY88-H4 epigenetic marks in AR gene; test: ChIP with pY88-H4 antibodies and real time PCR at the AR gene; settings: LNCaP and VCaP cells grown in the absence of androgen
Experimental: FIGS. 10A-10C show H4 Y88-phosphorylation occurs within and downstream of AR gene. (FIG. 10A) The human AR gene and two pY88-H4 binding sites are shown. (FIG. 10B) VCaP and (FIG. 10C) LNCaP cells treated with ACK1 inhibitor; ChIP was performed followed by qPCR using primers corresponding to promoter, intron 2, 3′UTR or control region. VCaP: *p<0.05, **p<0.05; LNCaP: *p<0.05, **p<0.05
To determine whether ACK1 modifies chromatin at AR gene locus, LNCaP and VCaP cells grown in the absence of androgen and were treated with AIM-100. Chromatin immunoprecipitation (ChIP) was performed using pY88-H4 antibodies, followed by real time PCR with primers corresponding to the AR promoter, intron 2 and 3′UTR (FIG. 10A). […] These marks were also deposited at 3′UTR of the AR gene but not at the promoter region (FIGS. 10B and 10C).

[2] = test system: AR and H3K4me3 at intron 2 of AR gene; test: ChIP with AR or H3K4me3 antibodies and qPCR at intron 2 of AR gene; settings: LNCaP cells, absence of androgen
Experimental: LNCaP cells treated with AIM-100 and ChIP was performed using AR, H3K4me3 or IgG antibodies followed by qPCR using primers corresponding to intron 2, or control region. *p<0.05, **p<0.05.

Structure (SMILES): c1ccc(-c2oc3ncnc(NC[C@@H]4CCCO4)c3c2-c2ccccc2)cc1 [AIM-100]
- IC50 (LNCaP cells): 7 µM
- IC50 (VCaP cells): 4 µM
- AR protein levels (AR protein levels): concomitant decrease in AR protein levels
- pY88-H4 epigenetic marks at AR gene (intron 2, 3′UTR) [1]: erased
- AR enrichment at intron 2 of AR gene [2]: abolished
- H3K4me3 methyl marks at intron 2 of AR gene [2]: abolished
